Entries after “also recorded” stand apart in the source; their conditions may differ.
Assays:
Assay type in all cases: cell-based
[1] = system: Bovine LOX (lysyl oxidase) gene; experiment: RT-PCR analysis of LOX mRNA level after siRNA transfection; details: 20 nM siRNA, bovine stromal cells, 24 hours after transfection, n=2
Method: The Bovine LOX (lysyl oxidase) gene (Gene ID: 280841) was knockdown using siRNA. 20,000 bovine stromal cells/cm^2 were transfected with 20 nM of siRNA sequence against LOX (5′[…]3′; SEQ ID NO:1) or a scramble sequence (5′[…]3′; SEQ ID NO:2) as control, using Dharmacon DharmaFECT 1 transfection reagent. 24 hours after transfection the cells were lysed for RNA extraction. The RNA was reverse transcribed to cDNA and 5 ng/μl were subjected to RT-PCR with the following primers: […]

[2] = system: bovine embryonic fibroblasts; experiment: Secreted soluble collagen in growth medium (QuickZyme soluble collagen assay, Sirius Red)
Method: (§1) 35,000 bovine embryonic fibroblast cells/cm^2 were seeded in standard medium. 24 hours later the medium was changed to basal medium and the soluble collagen was measured on day 6 or 7. Likewise, 20,000 stromal cells/cm^2 were seeded in basal medium. 24 hours later the cells were transfected with siRNA targeted to LOX or a scramble sequence as a control. After 24 hours the medium was changed to fresh basal medium. The soluble collagen levels were measured daily from day 3 until day 7.
(§2) Secreted soluble collagen was measured using QuickZyme soluble collagen assay which is based on binding of the dye Sirius Red to collagen. Following binding of the dye, the collagen-dye complex precipitates, resulting in a colored pellet. The pellet is re-suspended in an alkaline solution and the absorbance is measured in a plate reader.
(§3) • 1. Conditioned culture medium is collected and centrifuged for 10 minutes at 1,500 g (at 4° C.) to remove cell debris. • 2. The supernatant is diluted in a dilution buffer placed in the assay microplate (V-shaped plate). • 3. The collagen standard solution is diluted in serial dilutions in the dilution buffer and placed in the assay microplate (V-shaped plate). • 4. Sirius red dye is added to the samples and to the standards and mixed. • 5. The plate is centrifuged for 60 minutes at 3000×g at 4° C. to precipitate the pellet. • 6. The pellets are washed and resuspended.
(§4) The resuspended colored solution is transferred to the reading microplate (flat bottom) and read at 540 nm.
35,000 bovine embryonic fibroblast cells/cm^2 were expanded in standard medium (DMEM+10% Fetal Bovine Serum+1% penicillin\streptomycin). 24 hours after seeding their medium was changed to basal medium with 50 μM GM6001.
(§5) 35,000 bovine embryonic fibroblast cells/cm^2 were seeded in standard medium (DMEM+10% Fetal Bovine Serum+1% penicillin\streptomycin). 24 hours after seeding the medium was changed to basal medium with different concentration (0-500 μM) of GM6001, a matrix metalloprotease (MMP) inhibitor which prevents C-terminal cleavage of the procollagen. After 4 days, the medium was collected from the cultures and measured for soluble collagen levels. Insoluble collagen was collected from the culture dish its level was measured.

[3] = system: bovine embryonic fibroblasts; experiment: Insoluble collagen from culture dish (Total Collagen Assay kit, hydroxyproline); details: different concentrations of GM6001 (0-500 μM in text, 0-200 μM in legend), 4 days
Method: 24 hours after seeding the medium was changed to basal medium with different concentration (0-500 μM) of GM6001, a matrix metalloprotease (MMP) inhibitor which prevents C-terminal cleavage of the procollagen.
• 1. Wash the cells once with PBS.
as §5

bovine stromal cells = experiment: Secreted soluble collagen in growth medium of stromal cells (QuickZyme soluble collagen assay)
Method: as §1, §2
as §3, with “The plate is centrifuged for 60 minutes at 3000×g at 4° C. to precipitate the pellet. • 6. The pellets are washed and resuspended.” left out
as §4

Row | Compound | reduction of LOX expression (mRNA) relative to scramble control [1] [%] | amount of secreted soluble collagen for 10^6 bovine embryonic fibroblasts ([2]; 50 μM GM6001) | increase of soluble collagen in the growth medium vs basal medium ([2]; 50 μM GM6001, 72 hours) | amount of soluble collagen in the growth medium ([2]; Basal medium + 50 μM GM6001, 72 hours, N=6, basal medium alone 375) [μg/10^6 cells] | secreted soluble collagen in the growth medium (in words) ([2]; basal medium supplemented with GM6001, bovine embryonic fibroblasts) | maximum soluble collagen level ([2]; basal medium with 50 μM GM6001, measured daily, maximum on the 7th day) [μg\10^6 cells] | soluble collagen level with increasing GM6001 concentration ([2]; different concentrations of GM6001, 4 days, increase up to about 50 μM) | insoluble collagen level with increasing GM6001 concentration [3] | soluble collagen levels in the growth medium, LOX silencing combined with GM6001 (bovine stromal cells; LOX siRNA-treated bovine stromal cells, basal medium with 50 μM GM6001) | secreted soluble collagen in the growth medium (in words) (bovine stromal cells; basal medium supplemented with GM6001, bovine stromal cells)
1 | 5′GCUGAUAACCAGACGGCACUU3′ (listed as RNA, chemistry not given here) [siRNA sequence against LOX] | 80 | – | – | – | – | – | – | – | – | –
2 | CNC(=O)[C@H](Cc1c[nH]c2ccccc12)NC(=O)[C@@H](CC(=O)NO)CC(C)C [GM6001, Ilomastat] | – | about 1 mg | more than 2 folds | 825 | enhanced | ~900 | enriches; also recorded: increased | decrease; also recorded: decreasing | increased; also recorded: enhanced | enhanced
